In PubChem BioAssay AID2305 (GlaxoSmithKline (GSK), 2010):
pIC50: −log10 of the molar value.

Tested on: P. falciparum 3D7 growth, pLDH absorbance
Experiment: blood-stage malaria parasite growth potency – strain 3D7, dose response (AID 2305)

Row | SMILES | pIC50
1 | N#Cc1ccc(-c2ccc(C(=O)NCCCCN3CCC(c4cn(CCCO)c5ccccc45)CC3)cc2)cc1 | 6.12
2 | Nc1nc(N)c2c(ccc3c2ccn3C2C=CCCC2)n1 (stereo not drawn) | 6.89
3 | O=C(NC1CCCCCC1)C1CCCN(C(=O)c2ccc(O)c(-c3ccc(Cl)c(Cl)c3)c2)C1 (stereo not drawn) | 6.12
4 | CN(C)c1ccc(CN2CCC(CNC(=O)c3cc(-c4ccccc4Cl)cs3)C2)cc1 (stereo not drawn) | 5.84
5 | CC[C@H]1CN2CC[C@H]1C[C@H]2[C@H](O)c1cc(-c2ccc3ccccc3c2)nc2ccc(OC)cc12 | 7.00
6 | O=C(/C=C/c1ccc(Cl)c(Cl)c1)NCCCCCN1CCC(NC(=O)Nc2ccc(F)cc2F)CC1 | 6.13
7 | CCn1c(CN2CCN(Cc3ccccc3)CC2)nc2cc(NC(=O)c3cccs3)ccc21 | 6.40
8 | Nc1c2ccccc2nc2ccc(-c3ccccc3)cc12 | 6.85
9 | COc1ccc(Cl)cc1NC(=O)C(C)Nc1ccc(-c2ccccc2)cc1 (stereo not drawn) | 6.25
10 | NC(=O)C1CCN(Cc2cccc(-c3cccc(-c4nc5ccc(C(F)(F)F)cc5[nH]4)c3)c2)CC1 | 6.19
11 | CN1CCC(OC(=O)c2cc3cc(-c4ccccc4)ccc3n2S(=O)(=O)c2ccccc2)CC1 | 5.96
12 | CCOC(=O)c1cc(C(=O)NCCCCN2CCC(c3cn(C)c4ccccc34)CC2)ccc1-c1ccc(C(F)(F)F)cc1 | 5.92
13 | CC(=O)Oc1c(C2CCN(CCCCNC(=O)c3ccc(-c4ccc(C#N)cc4)cc3)CC2)ccc2c1CCCC2 | 5.95
14 | CCOc1ccccc1C(=O)Nc1cccc(-c2nc3ncccn3c2C)c1 | 6.07
15 | Cc1cccc2[nH]c(-c3cccc(-c4ccc(NC(=O)C5CCN(C)CC5)cc4)c3)nc12 | 6.08
16 | CC(C)(C)c1cc(N=NC(=O)c2ccncc2)cc(C(C)(C)C)c1O | 6.15
17 | CN1CCN(CCCN(Cc2cccc(-c3cccc(CNC4CCCC4)c3)c2)C(=O)CCC2CCCC2)CC1 | 6.17
18 | CN1CCN(CC(O)CNC(=O)Nc2ccc(Br)cc2)CC1 (stereo not drawn) | 6.82
19 | CCCC(C)c1cnc2nc(N)nc(N)c2c1C (stereo not drawn) | 7.52
20 | NC(=O)C1CCN(Cc2cccc(-c3ccc(-c4nc5ccc(C(F)(F)F)cc5[nH]4)cc3)c2)CC1 | 6.21
21 | c1ccc(-c2cc(NCc3cccc4ccccc34)c3[nH]ncc3n2)cc1 | 6.28
22 | CCCCCCC(N)c1ccc(OCCCOc2ccc(C(N)CCCCCC)cc2)cc1 (stereo not drawn) | 5.94
23 | O=C(/C=C/c1ccc(Cl)cc1)NCCCCCN1CCCC(C(=O)Nc2ccc(Cl)c(Cl)c2)C1 (stereo not drawn) | 6.08
24 | COc1ccc2ncc(C#N)c(CCN3C[C@H](CNCc4ccccc4)[C@H](O)C3)c2n1 | 5.97

Row | SMILES | pIC50
25 | CC(C)(Oc1ccc(Cl)cc1)C(=O)NCCC1CCN(CCCCCNC(=O)/C=C/c2ccc(Cl)c(Cl)c2)CC1 | 6.03
26 | CC(C)NCc1cc(Nc2ccnc3cc(Cl)ccc23)ccc1O | 7.70
27 | CN(C)Cc1c(O)ccc2oc(Cc3ccccc3)cc12 | 6.04
28 | CCCCCN=C(N)N/N=C/c1c[nH]c2ccc(OC)cc12 | 6.02
29 | CCN(CC)C(=O)c1cnc(-c2ccccc2)nc1Oc1cccc(Cl)c1 | 5.94
30 | CN(c1ccc(NC(=O)Nc2cc(C(C)(C)C)on2)cc1)c1ccnc(NCCN2CCOCC2)n1 | 5.95
31 | O=C(Nc1ccc(OC2CCN(Cc3ccsc3)C2)c(Cl)c1)c1ccco1 (stereo not drawn) | 6.22
32 | Cc1cccc2[nH]c(-c3ccc(-c4ccc(C(=O)NCCN5CCCC5)cc4)s3)nc12 | 6.05
33 | CCc1ccc(Cc2cnc3nc(N)nc(N)c3c2C)cc1CC | 6.54
34 | O=C(Nc1cccc(-c2csc(-c3nc4ccccc4[nH]3)c2)c1)c1ccncc1 | 6.59
35 | Cc1[nH]c(C)c(-c2ccc(-c3ccc(C#N)cc3)nc2)c(=O)c1Br | 6.01
36 | Cc1ccc2c(NN=Cc3cccc([N+](=O)[O-])c3)cc(C)nc2c1 | 6.57
37 | CCc1cc([C@H]2O[C@@H](n3cnc4c(NCC(c5ccccc5)c5ccccc5)nc(NCCNc5ccccn5)nc43)[C@H](O)[C@@H]2O)on1 | 6.05
38 | COc1cc(NC(=O)Nc2cc(C)nc3ccccc23)cc(OC)c1 | 6.40
39 | COc1ccc(CNCC2CCC(CNCCc3ccccc3)CC2)cc1Cl (stereo not drawn) | 6.10
40 | COc1cccc(-c2csc(C(=O)NCC3CCN(Cc4ccc(C(C)C)cc4)C3)c2)c1 (stereo not drawn) | 5.86
41 | CC(CN1CCN(C)CC1)C(=O)Nc1cccc(-c2cccc(-c3nc4ccc(F)cc4[nH]3)c2)c1 (stereo not drawn) | 6.57
42 | COc1ccc2nc(-c3cc(-c4ccc(NC(C)=O)cc4)cnc3N)[nH]c2c1 | 5.91
43 | CN(C)CCN(Cc1ccccc1-c1ccc(CNCCc2ccccc2)cc1)C(=O)c1ccccc1 | 5.77
44 | O=C(Nc1ccc(F)c(C(F)(F)F)c1)N[C@H]1CCN(CCCCCNC(=O)[C@@H]2C[C@H]2c2ccc(Cl)c(Cl)c2)C1 | 6.80
45 | COc1cc2nc(-c3ccccc3)nc(N3CCN(C(=O)c4ccco4)CC3)c2cc1OC | 5.85
46 | O=C(Nc1cccc(C(F)(F)F)c1)NC1CCN(c2ccnc3ccccc23)CC1 | 6.00
47 | CC(=O)c1ccccc1C(=O)N1CCOc2ccc(C(O)C(c3ccccc3)c3ccccc3)cc2C1 (stereo not drawn) | 6.05
48 | O=c1ccc2ncc(Cl)c3c2n1CC3CN1CCC(NCc2cc3c(cn2)OCCO3)CC1 (stereo not drawn) | 6.02
